Source: article PMC10762035, “Molecular basis of human trace amine-associated receptor 1 activation” (Nature Communications, 2024)
Residue numbers refer to the chain shown, from its start. Several values for one entry are separate records, joined by “and”; a condition that tells them apart may be missing. Identical values can stand only once.

Assays:
hTA1 T194A = biological target: T1, hTA1 T194A (Homo sapiens, UniProt Q96RJ0, T194A); assay: GloSensor cAMP accumulation assay, T194A mutant; details: for cAMP accumulation response, individual replicate values of the concentration-response curve: hTA1 T194A, log[Agonist], Supplementary Figure 5 source data
T1 sequence (Q96RJ0 1-339 T194A): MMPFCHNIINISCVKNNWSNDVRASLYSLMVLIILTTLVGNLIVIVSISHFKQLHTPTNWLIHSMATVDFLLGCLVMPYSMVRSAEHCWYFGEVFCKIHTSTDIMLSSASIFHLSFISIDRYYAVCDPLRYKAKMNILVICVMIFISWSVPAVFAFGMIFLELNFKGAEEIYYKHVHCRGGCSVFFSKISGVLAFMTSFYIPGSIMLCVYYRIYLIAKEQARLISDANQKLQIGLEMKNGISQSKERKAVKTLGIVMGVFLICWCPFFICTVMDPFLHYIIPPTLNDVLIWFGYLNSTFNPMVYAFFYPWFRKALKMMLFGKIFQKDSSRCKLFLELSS

hTA1 R83H = biological target: T2, hTA1 R83H (Homo sapiens, UniProt Q96RJ0, R83H); assay: GloSensor cAMP accumulation assay, R83H mutant; format: cell-based;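 further: cells transiently co-expressing hTA1 and a cAMP GloSensor, luminescence read 30 min after agonist addition at room temperature, concentration–response fitted by non-linear regression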
T2 construct: expressed in transfected cells; host or cells: HEK293T
T2 sequence (Q96RJ0 1-339 R83H): T1 sequence (Q96RJ0 1-339 T194A) with R83H, A194T

hTA1 b2N = biological target: T3, hTA1 b2N (Homo sapiens, UniProt Q96RJ0); assay: GloSensor cAMP accumulation assay, b2N construct; format: cell-based; details: b2N, n=2
T3 construct: read by me as the first 25 residues of β2AR (N); expressed in transfected cells; host or cells: HEK293T
T3 sequence (Q96RJ0 with tags, fused parts or gaps): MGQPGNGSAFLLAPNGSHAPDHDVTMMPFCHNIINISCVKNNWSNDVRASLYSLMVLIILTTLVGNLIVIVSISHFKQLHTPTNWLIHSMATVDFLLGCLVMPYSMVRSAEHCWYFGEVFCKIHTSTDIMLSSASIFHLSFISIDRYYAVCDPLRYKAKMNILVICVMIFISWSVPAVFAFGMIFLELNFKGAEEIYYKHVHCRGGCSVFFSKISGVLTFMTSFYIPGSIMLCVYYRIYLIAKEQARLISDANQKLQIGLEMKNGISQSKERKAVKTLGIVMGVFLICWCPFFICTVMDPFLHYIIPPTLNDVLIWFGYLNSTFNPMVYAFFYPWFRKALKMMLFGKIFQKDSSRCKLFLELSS

hTA1 C178S = biological target: T4, hTA1 C178S (Homo sapiens, UniProt Q96RJ0, C178S); assay: GloSensor cAMP accumulation assay, C178S mutant; format: cell-based; details: for C178S - Normalized Luminescence Counts (N=2): log[Compound], single replicates
T4 construct: expressed in transfected cells; host or cells: HEK293T
T4 sequence (Q96RJ0 1-339 C178S): T1 sequence (Q96RJ0 1-339 T194A) with C178S, A194T

[1] = C178S, each row one experiment (N=2), 3 replicates

## NCCc1ccccc1 [β-PEA, β-phenethylamine]
hTA1 T194A; T149A (so in the source), single experiments (3 replicates each)
  pEC50 values, Mean: 7.395 and 7.196 and 7.094
hTA1 T194A; T149A (so in the source), single experiments (3 replicates each), β-PEA = 100
  Emax values, Mean: 100
hTA1 T194A; T194A
  EC50: 63.6 nM
  Span ± SEM (Emax normalized to β-PEA): 100 ± 2.46
  pEC50 ± SEM: 7.23 ± 0.13
hTA1 T194A; M = -7.522
  cAMP accumulation response, individual replicate values of the concentration-response curve: 32.1474 and 24.1931 and 33.6304 and 28.9237 and 30.7017 and 33.27 and 42.7604 and 43.2488 and 44.1811
hTA1 T194A; M = -8
  cAMP accumulation response, individual replicate values of the concentration-response curve: 31.2036 and 13.6773 and 15.1603 and 14.8971 and 13.5142 and 22.7372 and 24.6907 and 22.9592
hTA1 T194A; M = -8.522
  cAMP accumulation response, individual replicate values of the concentration-response curve: 3.836 and 0.5999 and 3.97 and 8.1802 and 2.846 (2×) and 8.885 and 8.264 and 10.2172
hTA1 T194A; M = -9
  cAMP accumulation response, individual replicate values of the concentration-response curve: 2.487 and 2.892 and 1.813 and 0.4755 and 2.056 and 3.424 and 1.293 (2×)
hTA1 T194A; M = -9.522
  cAMP accumulation response, individual replicate values of the concentration-response curve: 1.678 and 0.1954 and 0.8695 and 0.08035 (2×) and -0.5123 and 0.3166 and -0.7046 and 0.139
hTA1 T194A; M = -10
  cAMP accumulation response, individual replicate values of the concentration-response curve: -0.6135 and -0.209 and 0.1954 and -0.5123 and -0.3148 and -0.08302 and -0.1718 and -0.749
hTA1 T194A; M = -10.522
  cAMP accumulation response, individual replicate values of the concentration-response curve: -0.4787 and -1.692 and -1.557 and -1.303 (2×) and -1.5 and -0.7934 and -0.6602 and -0.6158
hTA1 T194A; M = -11
  cAMP accumulation response, individual replicate values of the concentration-response curve: -1.4224 (2×) and -0.7483 and -0.9074 and -0.7099 and -0.4382 and -0.8378 and 0.05017
hTA1 T194A; M = -11.522
  cAMP accumulation response, individual replicate values of the concentration-response curve: 0.4651 and -1.018 and -1.153 and -0.5123 and -0.7099 (2×) and -0.4382 and -1.015 and -0.6602
hTA1 T194A; M = -12
  cAMP accumulation response, individual replicate values of the concentration-response curve: -0.07421 (2×) and -1.962 and -1.698 and -1.105 and -0.1274 and -0.6602 and -0.1718
hTA1 T194A; M = -12.522
  cAMP accumulation response, individual replicate values of the concentration-response curve: 0.0606 and 1.004 and 0.8695 and -0.9074 and -0.7099 and -0.3148 and -0.1718 and -0.305 and 0.1834
hTA1 T194A; minus WT average
  ΔEmax values (each mutant value - WT average): 0
hTA1 R83H; R83H mutant minus WT average
  ΔEmax values (each mutant value - WT average): 0
  ΔpEC50 values (each mutant value - WT average): -1.391 and -1.424
hTA1 R83H; R83H mutant, each line an independent experiment, 3 replicates
  pEC50 values, Mean: 5.702 and 5.67
hTA1 R83H; R83H mutant, β-PEA = 100, each line an independent experiment, 3 replicates
  Emax values, Mean: 100
hTA1 R83H; R83H, n=2
  Span ± SEM (Emax normalized to β-PEA): 100 ± 5.46
  pEC50 ± SEM: 5.69 ± 0.07
hTA1 R83H; R83H, n=2, read-out: EC50
  EC50: 2060 nM
hTA1 b2N
  Span ± SEM (Emax normalized to β-PEA): 100 ± 3.11
  pEC50 ± SEM: 7.59 ± 0.07
hTA1 b2N; read-out: EC50
  EC50: 25.4 nM
hTA1 C178S; [1]
  pEC50 values, Mean: 7.235 and 7.223
  ΔpEC50 values (each mutant value - WT average), Mean: 0.1416 and 0.1292
hTA1 C178S; C178S, n=2
  Span ± SEM (Emax normalized to β-PEA): 100 ± 2.97
  pEC50 ± SEM: 7.23 ± 0.07
hTA1 C178S; C178S, n=2, read-out: EC50
  EC50: 59 nM
hTA1 C178S; C178S, β-PEA = 100, each row one experiment (N=2), 3 replicates
  Emax values, Mean: 100
hTA1 C178S; M = -5
  C178S - Normalized Luminescence Counts (N=2): 99.3155 and 106.699 and 98.2875 and 86.7589 and 74.9716 and 83.1688
hTA1 C178S; M = -5.522
  C178S - Normalized Luminescence Counts (N=2): 92.9136 and 85.3902 and 85.0163 and 113.744 and 82.4209 and 115
hTA1 C178S; M = -6
  C178S - Normalized Luminescence Counts (N=2): 105.577 and 101.792 and 96.652 and 125.741 and 90.4686 and 124.155
